Data published in PubChem BioAssay (NCI).
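Where inhibition never reached the appropriate level, the endpoint shown equals the highest concentration tested. Otherwise, values were interpolated linearly from a five-concentration, 48-hour dose response in 96-well plates. Abbreviation: GI50, concentration required for 50% inhibition of growth. TGI: concentration producing complete growth inhibition.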

Experiments:
Assay in all cases: inhibition of tumour cell growth, NCI panel, 48 h
HL-60(TB) leukemia = system: HL-60(TB) leukemia
RXF 393 renal = system: RXF 393 renal
BT-549 breast = system: BT-549 breast
HOP-92 NSCLC = system: HOP-92 NSCLC
K-562 leukemia = system: K-562 leukemia
MALME-3M melanoma = system: MALME-3M melanoma
MCF7 breast = system: MCF7 breast
ACHN renal = system: ACHN renal
UACC-62 melanoma = system: UACC-62 melanoma
NCI/ADR-RES ovarian = system: NCI/ADR-RES ovarian
SF-295 CNS = system: SF-295 CNS
SK-OV-3 ovarian = system: SK-OV-3 ovarian
HCT-15 colon = system: HCT-15 colon
T-47D breast = system: T-47D breast
SK-MEL-5 melanoma = system: SK-MEL-5 melanoma
SR leukemia = system: SR leukemia
HT29 colon = system: HT29 colon
SNB-75 CNS = system: SNB-75 CNS
HCC-2998 colon = system: HCC-2998 colon
UO-31 renal = system: UO-31 renal
OVCAR-8 ovarian = system: OVCAR-8 ovarian
MOLT-4 leukemia = system: MOLT-4 leukemia
TK-10 renal = system: TK-10 renal
SF-268 CNS = system: SF-268 CNS
786-0 renal = system: 786-0 renal
U251 CNS = system: U251 CNS
SK-MEL-28 melanoma = system: SK-MEL-28 melanoma
HS 578T breast = system: HS 578T breast
NCI-H23 lung = system: NCI-H23 lung
SK-MEL-2 melanoma = system: SK-MEL-2 melanoma
OVCAR-4 ovarian = system: OVCAR-4 ovarian
LOX IMVI melanoma = system: LOX IMVI melanoma
COLO 205 colon = system: COLO 205 colon
UACC-257 melanoma = system: UACC-257 melanoma
SF-539 CNS = system: SF-539 CNS
NCI-H460 lung = system: NCI-H460 lung
OVCAR-5 ovarian = system: OVCAR-5 ovarian
DU-145 prostate = system: DU-145 prostate
KM12 colon = system: KM12 colon
CCRF-CEM leukemia = system: CCRF-CEM leukemia
A549 NSCLC = system: A549 NSCLC
NCI-H522 lung = system: NCI-H522 lung
A498 renal = system: A498 renal
SN12C renal = system: SN12C renal
SW-620 colon = system: SW-620 colon
CAKI-1 renal = system: CAKI-1 renal
OVCAR-3 ovarian = system: OVCAR-3 ovarian
MDA-MB-231 breast = system: MDA-MB-231 breast
M14 melanoma = system: M14 melanoma
HCT-116 colon = system: HCT-116 colon
HOP-62 NSCLC = system: HOP-62 NSCLC
SNB-19 CNS = system: SNB-19 CNS
NCI-H226 lung = system: NCI-H226 lung
EKVX NSCLC = system: EKVX NSCLC
PC-3 prostate = system: PC-3 prostate
MDA-MB-435 = system: MDA-MB-435
RPMI-8226 leukemia = system: RPMI-8226 leukemia
IGROV1 ovarian = system: IGROV1 ovarian

CCCC(=O)NC(c1ccc2c(c1)OC(F)(F)O2)c1cc(C)c2cccnc2c1O (centres undefined)
GI50 (HL-60(TB) leukemia): 391 nM | TGI (HL-60(TB) leukemia): > 100000 nM | GI50 (RXF 393 renal): 3170 nM | TGI (RXF 393 renal): > 47300 nM | GI50 (BT-549 breast): 918 nM | TGI (BT-549 breast): > 100000 nM | GI50 (HOP-92 NSCLC): 296 nM | TGI (HOP-92 NSCLC): 33400 nM | GI50 (K-562 leukemia): 367 nM | TGI (K-562 leukemia): > 100000 nM | GI50 (MALME-3M melanoma): 1080 nM | TGI (MALME-3M melanoma): > 26700 nM | GI50 (MCF7 breast): 419 nM | TGI (MCF7 breast): > 100000 nM | GI50 (ACHN renal): 406 nM | TGI (ACHN renal): > 36600 nM | GI50 (UACC-62 melanoma): 275 nM | TGI (UACC-62 melanoma): 1970 nM | GI50 (NCI/ADR-RES ovarian): 290 nM | TGI (NCI/ADR-RES ovarian): 4820 nM | GI50 (SF-295 CNS): 691 nM | TGI (SF-295 CNS): > 100000 nM | GI50 (SK-OV-3 ovarian): 510 nM | TGI (SK-OV-3 ovarian): > 67500 nM | GI50 (HCT-15 colon): 353 nM | TGI (HCT-15 colon): > 100000 nM | GI50 (T-47D breast): 504 nM | TGI (T-47D breast): > 100000 nM | GI50 (SK-MEL-5 melanoma): 714 nM | TGI (SK-MEL-5 melanoma): 2350 nM | GI50 (SR leukemia): 436 nM | TGI (SR leukemia): > 100000 nM | GI50 (HT29 colon): 492 nM | TGI (HT29 colon): > 100000 nM | GI50 (SNB-75 CNS): 685 nM | TGI (SNB-75 CNS): 8430 nM | GI50 (HCC-2998 colon): 780 nM | TGI (HCC-2998 colon): > 100000 nM | GI50 (UO-31 renal): 218 nM | GI50 (OVCAR-8 ovarian): 406 nM | TGI (OVCAR-8 ovarian): > 100000 nM | GI50 (MOLT-4 leukemia): 397 nM | TGI (MOLT-4 leukemia): > 100000 nM | GI50 (TK-10 renal): 1990 nM | TGI (TK-10 renal): > 100000 nM | GI50 (SF-268 CNS): 690 nM | TGI (SF-268 CNS): > 100000 nM | GI50 (786-0 renal): 702 nM | TGI (786-0 renal): > 34500 nM | GI50 (U251 CNS): 473 nM | TGI (U251 CNS): > 84600 nM | GI50 (SK-MEL-28 melanoma): 637 nM | TGI (SK-MEL-28 melanoma): > 100000 nM | GI50 (HS 578T breast): 2190 nM | TGI (HS 578T breast): > 100000 nM | GI50 (NCI-H23 lung): 669 nM | TGI (NCI-H23 lung): > 100000 nM | GI50 (SK-MEL-2 melanoma): 1280 nM | TGI (SK-MEL-2 melanoma): > 68700 nM | GI50 (OVCAR-4 ovarian): 446 nM | TGI (OVCAR-4 ovarian): > 100000 nM | GI50 (LOX IMVI melanoma): 451 nM | TGI (LOX IMVI melanoma): > 33400 nM | GI50 (COLO 205 colon): 1260 nM | TGI (COLO 205 colon): > 100000 nM | GI50 (UACC-257 melanoma): 1300 nM | TGI (UACC-257 melanoma): > 28900 nM | GI50 (SF-539 CNS): 666 nM | TGI (SF-539 CNS): 12000 nM | GI50 (NCI-H460 lung): 421 nM | TGI (NCI-H460 lung): > 100000 nM | GI50 (OVCAR-5 ovarian): 1730 nM | TGI (OVCAR-5 ovarian): > 100000 nM | GI50 (DU-145 prostate): 1780 nM | TGI (DU-145 prostate): > 100000 nM | GI50 (KM12 colon): 793 nM | TGI (KM12 colon): > 100000 nM | GI50 (CCRF-CEM leukemia): 443 nM | TGI (CCRF-CEM leukemia): > 100000 nM | GI50 (A549 NSCLC): 993 nM | TGI (A549 NSCLC): > 100000 nM | GI50 (NCI-H522 lung): 326 nM | TGI (NCI-H522 lung): > 32300 nM | GI50 (A498 renal): > 74700 nM | TGI (A498 renal): > 100000 nM | GI50 (SN12C renal): 886 nM | TGI (SN12C renal): > 100000 nM | GI50 (SW-620 colon): 695 nM | TGI (SW-620 colon): > 100000 nM | GI50 (CAKI-1 renal): 438 nM | TGI (CAKI-1 renal): 21400 nM | GI50 (OVCAR-3 ovarian): 437 nM | TGI (OVCAR-3 ovarian): > 100000 nM | GI50 (MDA-MB-231 breast): 565 nM | TGI (MDA-MB-231 breast): > 100000 nM | GI50 (M14 melanoma): 532 nM | TGI (M14 melanoma): 3820 nM | GI50 (HCT-116 colon): 509 nM | TGI (HCT-116 colon): > 100000 nM | GI50 (HOP-62 NSCLC): 592 nM | TGI (HOP-62 NSCLC): > 100000 nM | GI50 (SNB-19 CNS): 825 nM | TGI (SNB-19 CNS): > 100000 nM | GI50 (NCI-H226 lung): 544 nM | TGI (NCI-H226 lung): > 22800 nM | GI50 (EKVX NSCLC): 987 nM | TGI (EKVX NSCLC): > 100000 nM | GI50 (PC-3 prostate): 651 nM | TGI (PC-3 prostate): > 100000 nM | GI50 (MDA-MB-435): 1090 nM | TGI (MDA-MB-435): > 100000 nM | GI50 (RPMI-8226 leukemia): 727 nM | TGI (RPMI-8226 leukemia): > 100000 nM | GI50 (IGROV1 ovarian): 453 nM
